Assays:
[1] = tested on: LTB4 receptor; assay: TXB2 release from guinea pig eosinophils stimulated with LTB4 (LTB4 receptor antagonist activity); assay type: cell-based; details: 10^−3 M test compound (37.5 μl) added to 300 μl cell suspension, then 10^−7 M LTB4 (37.5 μl), 37° C. 15 min, positive control 100, negative control 0, N.D. = TXB2 concentration at measurement limit or less
Protocol: The LTB4 receptor antagonist activity of the test compound was examined using, as an index, thromboxane B2 (TXB2) released when stimulating eosinophil of guinea pig with LTB4.
Based on the method described in Japanese Journal of Pharmacology, vol. 70, p. 337-345 (1996) etc., eosinophils of guinea pig were prepared. A cell suspension (300 μl, 1.25×10^6 cells/ml) was placed in a 5 ml polypropylene test tube and, after incubation at 37° C. for 5 min., 10^−3 M test compound (37.5 μl) dissolved in 0.1% DMSO aqueous solution was added and the cells were continuously cultured for 5 min. Then, 10^−7 M LTB4 (37.5 μl) was added to induce the reaction and the cells were incubated at 37° C. for 15 min. The reaction was quenched in ice water, and the culture was centrifuged at 4° C., 3000 rpm for 10 min. The obtained supernatant was prepared as a sample for TXB2 measurement, and preserved at −80° C. before use for the measurement. The quantitation of TXB2 was performed using a TXB2 enzyme immunoassay kit (manufactured by Cayman Chemical Company). The release ratio (%) of TXB2 from the eosinophils was determined by the following formula: release ratio (%) of TXB2=[(average value of test compound administration group−average value of negative control group)/(average value of positive control group−average value of negative control group)]×100
As used herein, the positive control group means a group to which stimulation with LTB4 was applied but the same volume of a medium was given instead of the test compound, and the negative control group means a group to which stimulation with LTB4 was not applied, the same volume of a medium was given instead of LTB4, and the same volume of a medium was given instead of the test compound. When the release ratio of TXB2 is smaller than 0, it means that the measured TXB2 concentration was lower than that of the negative control group. When the TXB2 concentration in the sample was the measurement limit or less, N.D. is indicated.

SMILES	melting point [°C]	Amount of TXB2 release (%) [1] [%]
CCN(CC)C(=O)/C=C(/C)c1cc2cccc(OC(C)C)c2o1 [Example 34, (Z)-3-(7-isopropoxybenzofuran-2-yl)-N,N-diethyl-2-butenamide]		−0.063
COc1ccc(CCNC(=O)/C=C(\C)c2ccc(OC(C)c3ccccc3)c3oc(C(C)=O)cc23)cc1OC (stereo not drawn) [Example 8, (E)-3-[2-acetyl-7-(l-phenylethoxy)benzofuran-4-yl]-N-[2-(3,4-dimethoxyphenyl)ethyl]-2-butenamide]		41.73
CCNS(=O)(=O)c1ccc(OCCCC(=O)OCC)c2oc(/C(C)=C\C(=O)N(CC)CC)cc12 [Example 48, Ethyl (Z)-4-[2-(2-diethylcarbamoyl-1-methylvinyl)-4-ethylsulfamoylbenzofuran-7-yloxy]butyrate]		53.91
CC(=O)c1oc2ccc(/C(C)=C/C(=O)N3CCN(c4ccccc4)CC3)cc2c1N [Example 18, (E)-3-(2-acetyl-3-aminobenzofuran-5-yl)-1-(4-phenylpiperazin-1-yl)-2-buten-1-one]		53.91
CC(=CC(=O)N1CCOCC1)c1cc2cccc(OC(c3ccccc3)c3ccccc3)c2o1 (stereo in doubt) [Example 42, (E)-3-(7-benzhydryloxybenzofuran-2-yl)-1-morpholino-2-buten-1-one]		13.83
CCOC(=O)CCCOc1ccc(Br)c2cc(/C(C)=C/C(=O)N(CC)CC)oc12 [Example 35]		1.02
CCN(CC)C(=O)/C=C(\C)c1cc2cccc(OC(c3ccccc3)c3ccccc3)c2o1 [Example 37, (E)-3-(7-benzhydryloxybenzofuran-2-yl)-N,N-diethyl-2-butenamide]		15.69
CCOC(=O)CCCOc1ccc(/C(C)=C/C(=O)N(CC)CC)c2cc(C(C)=O)oc12 [Example 14, Ethyl (E)-4-[2-acetyl-4-(2-diethylcarbamoyl-1-methylvinyl)benzofuran-7-yloxy]butyrate]		44.81
COc1ccc2oc(-c3nc(N=CN(C)C)sc3/C=N/CCO)c(-c3ccc(Cl)cc3)c2c1 [Example 223, N′-{4-[3-(4-chlorophenyl)-5-methoxybenzofuran-2-yl]-5-[(2-hydroxyethylimino)methyl]thiazol-2-yl}-N,N-dimethylformamidine]	167.8 to 169.2	
O=C(/C=C/c1ccccc1)Nc1c(C(=O)c2ccc(Cl)cc2)oc2ccc(Br)cc12 [Example 113, (E)-N-[5-bromo-2-(4-chlorobenzoyl)benzofuran-3-yl]-3-phenylacrylamide]	171.2 to 171.8	
C/C=C/C(=O)Nc1c(C(=O)c2ccc(Cl)cc2)oc2ccc(Br)cc12 [Example 115, (E)-N-[5-bromo-2-(4-chlorobenzoyl)benzofuran-3-yl]-2-butenamide]	210.4 to 212.8	
C/C=C/C(=O)Nc1c(C(C)=O)oc2cc(OC)ccc12 [Example 116, (E)-N-(2-acetyl-6-methoxybenzofuran-3-yl)-2-butenamide]	153.8 to 155.7	
COc1ccc(CCNC(=O)/C=C(\C)c2ccc3oc(C(C)=O)c(NC(=O)c4cnoc4C)c3c2)cc1OC [Example 72, (E)-N-(2-acetyl-5-(2-[2-(3,4-dimethoxyphenyl)ethylcarbamoyl]-1-methylvinyl)benzofuran-3-yl)-5-methylisoxazole-4-carboxamide]		84.46
C/C(O)=C(\C#N)C(=O)Nc1c(C#N)oc2ccc(Br)cc12 [Example 104, (Z)-N-(5-bromo-2-cyanobenzofuran-3-yl)-2-cyano-3-hydroxy-2-butenamide]	206.3 to 208.3	
C/C(=C\C(=O)N1CCOCC1)c1ccc2oc(C(=O)c3ccccc3)cc2c1 [Example 25, (E)-3-(2-benzoylbenzofuran-5-yl)-1-morpholino-2-buten-1-one]	115.5 to 117	

The next lines start with results.

melting point [°C]	SMILES	Amount of TXB2 release (%) [1] [%]
146.1 to 150	COc1cccc(NC(=O)/C=C(/C)c2cc3c(S(=O)(=O)NCCc4ccc(OC)c(OC)c4)ccc(OCCCCl)c3o2)c1 [Example 52, (Z)-3-{7-(3-chloropropoxy)-4-[2-(3,4-dimethoxyphenyl)ethylsulfamoyl]benzofuran-2-yl}-N-(3-methoxyphenyl)-2-butenamide]	60.6
196 to 202.1	CC(=O)c1cc2c(/C(C)=C/C(=O)N3CCN(Cc4ccccc4)CC3)ccc(OC(C)c3ccccc3)c2o1 (centres unmarked) [Example 10, (E)-3-[2-acetyl-7-(1-phenylethoxy)benzofuran-4-yl]-1-(4-benzylpiperazin-1-yl)-2-buten-1-one]	23.43
186.3 to 187.2	CCOC(=O)c1oc2ccc(Br)cc2c1NC(=O)/C(C#N)=C(/C)O [Example 97, Ethyl (Z)-5-bromo-3-(2-cyano-3-hydroxy-2-butenoylamino)benzofurane-2-carboxylate]	−0.12
132.2 to 139.7	CC(NC(=O)/C=C/c1ccccc1)c1cc2cccc(OCCCCl)c2o1 (centres unmarked) [Example 131, (E)-N-{1-[7-(3-chloropropoxy)benzofuran-2-yl]ethyl}-3-phenylacrylamide]	2.14
168 to 173	COc1ccc(CCNC(=O)/C=C(\C)c2ccc3oc(C(C)=O)c(N)c3c2)cc1OC [Example 17, (E)-3-(2-acetyl-3-aminobenzofuran-5-yl)-N-[2-(3,4-dimethoxyphenyl)ethyl]-2-butenamide]	27.92
141.3 to 141.5	CCOC(=O)CCCOc1cccc2cc(/C(C)=C/C(=O)Nc3ccc(OC)cc3)oc12 [Example 28, Ethyl (E)-4-{2-[2-(4-methoxyphenylcarbamoyl)-1-methylvinyl]benzofuran-7-yloxy}butyrate]	−0.23
161.3 to 162.1	COc1ccc(CCNC(=O)/C=C/C=C(\Cl)c2cc3cc(Br)ccc3o2)cc1OC [Example 55, (2E,4Z)-5-(5-bromobenzofuran-2-yl)-5-chloropenta-2,4-dienoic acid [2-(3,4-dimethoxyphenyl)ethyl]amide]	53.91
245.4 to 249.5	N#CCC(=O)Nc1c(C(=O)c2ccc(Cl)cc2)oc2ccc(Br)cc12 [Example 197, N-[5-bromo-2-(4-chlorobenzoyl)benzofuran-3-yl]-2-cyanoacetamide]	
126.9 to 129.4	COc1ccc(CCNC(=O)/C=C(\C)c2ccc3oc(C(=O)c4ccccc4)cc3c2)cc1OC [Example 24, (E)-3-(2-benzoylbenzofuran-5-yl)-N-[2-(3,4-dimethoxyphenyl)ethyl]-2-butenamide]	
162.6 to 165.5	COc1ccc(CCNC(=O)/C=C(\C)c2ccc3oc(C(=O)c4ccc(C#N)cc4)c(NC(=O)c4cnoc4C)c3c2)cc1OC [Example 90, (E)-N-(2-(4-cyanobenzoyl)-5-{2-[2-(3,4-dimethoxyphenyl)ethylcarbamoyl]-1-methylvinyl}benzofuran-3-yl)-5-methylisoxazole-4-carboxamide]	
235.3 to 237.8	COc1ccc(Br)c2c(NC(C)=O)c(C(C)=O)oc12 [Example 211, N-(2-acetyl-4-bromo-7-methoxybenzofuran-3-yl)acetamide]	
131.7 to 133.4	COc1cccc2c(NC(=O)/C(C#N)=C(/C)O)c(C(=O)c3ccc(Br)cc3)oc12 [Example 99, (Z)-N-[2-(4-bromobenzoyl)-7-methoxybenzofuran-3-yl]-2-cyano-3-hydroxy-2-butenamide]	
229.4 to 232.5	C/C(=C\C(=O)N1CCOCC1)c1ccc2oc(C(=O)c3ccc(C#N)cc3)c(NC(=O)c3cnoc3C)c2c1 [Example 81, (E)-N-[2-(4-cyanobenzoyl)-5-(1-methyl-3-morpholino-3-oxo-1-propenyl)benzofuran-3-yl]-5-methylisoxazole-4-carboxamide]	
112.7 to 114.3	COc1ccc(CCNC(=O)/C=C(\C)c2ccc3oc(C(C)=O)cc3c2)cc1OC [Example 26, (E)-3-(2-acetylbenzofuran-5-yl)-N-[2-(3,4-dimethoxyphenyl)ethyl]-2-butenamide]	
121 to 122.1	CCNS(=O)(=O)c1ccc(OCCCC(=O)OCC)c2oc(C(C)NC(=O)/C(C#N)=C(\C)O)cc12 (centres unmarked) [Example 128, Ethyl (E)-4-{2-[1-(2-cyano-3-hydroxy-2-butenoylamino)ethyl]-4-ethylsulfamoylbenzofuran-7-yloxy}butyrate]	
88.1 to 90	CCNS(=O)(=O)c1ccc(OCCCC(=O)OCC)c2oc(C(C)NC(=O)c3cnoc3C)cc12 (centres unmarked) [Example 125, Ethyl 4-(4-ethylsulfamoyl-2-{1-[(5-methylisoxazole-4-carbonyl)amino]ethyl}benzofuran-7-yloxy)butyrate]	

From patent publication US7638540B2, “Benzofuran compound and medicinal composition containing the same” (The New Industry Research Organization, priority 2003, dated 2009)
